Read-outs that look alike come from different tables or passages of the source. Where a SMILES comes first, the peptide text is derived from it. The star is where a group is joined. FITC = O=C1OC2(c3ccc(O)cc3Oc3cc(O)ccc32)c2ccc(NC(=S)*)cc21
Key:
Format in all cases: binding
[1] = target: T1, CIB1 and αIIb interaction (CIB1-GST : F-αIIb peptide) (Homo sapiens, UniProt Q99828); assay: FP assay, 1536-well qHTS format (primary and confirmatory screen); details: for Curve Class: negative sign = inhibitory curve
T1 construct: made in house; host or cells: BL-21 plus RIL cells (E. coli)
T1 sequence (Q99828 1-191): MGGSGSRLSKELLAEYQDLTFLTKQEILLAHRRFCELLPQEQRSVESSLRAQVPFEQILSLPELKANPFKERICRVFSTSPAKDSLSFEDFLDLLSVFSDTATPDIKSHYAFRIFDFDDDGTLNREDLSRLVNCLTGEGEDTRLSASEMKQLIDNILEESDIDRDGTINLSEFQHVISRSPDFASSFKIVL

[2] = target: T2, GST-CIB1 : F-scrambled peptide (Homo sapiens, UniProt Q99828); assay: FP scrambled-peptide counter screen, 384-well format; details: for IC50: read-out: 384-well COUNTERSCREEN IC50
T2 construct: made in house; host or cells: BL-21 plus RIL cells (E. coli)
T2 sequence (Q99828 1-191): T1 sequence (Q99828 1-191)

[3] = target: T3, CIB1 and αIIb interaction (GST-CIB1 : F-αIIb peptide) (Homo sapiens, UniProt Q99828); assay: FP assay, 384-well format (screen); parameters: 384-well SCREEN Efficacy (%): concentration or dose not given beside the values; details: F-αIIb peptide; for 384-well SCREEN Confirm?: YES/NO; for IC50: read-out: 384-well SCREEN IC50
T3 construct: made in house; host or cells: BL-21 plus RIL cells (E. coli)
T3 sequence (Q99828 1-191): T1 sequence (Q99828 1-191)

[4] = target: T2, GST-CIB1 : F-scrambled peptide; assay: FP scrambled-peptide counter screen, 1536-well format; details: Table S3, counterscreen
[5] = qHTS primary screen hits, Table S2, negative = inhibition
[6] = qHTS primary screen hits, Table S2
[7] = qHTS primary screen hits, Table S2, read-out: IC50

Structure (SMILES)	Efficacy (%) [1, 5] [%]	Curve Class [1, 6]	384-well COUNTERSCREEN Efficacy (%) ([2]; F-scrambled peptide)	384-well SCREEN Efficacy (%) [3] [%]	384-well SCREEN Confirm? [3]	IC50 [1, 7] [µM]	IC50 ([2]; F-scrambled peptide) [µM]	IC50 [3] [µM]	further results
Cc1nc(N=Nc2cc(S(=O)(=O)O)c3cc([N+](=O)[O-])cc(S(=O)(=O)O)c3c2)c(COP(=O)(O)O)c(C=O)c1O (stereo in doubt) [NCGC00162294-03]	-64	-1.2	70	70	YES	–	–	–	–
CSCC[C@H](NC(=O)[C@@H](NC(=O)[C@H](CCCCN)NC(=O)[C@@H](NC(=O)[C@H](Cc1ccccc1)NC(=O)[C@H](CC(C)C)NC(=O)[C@H](CCCCN)NC(=O)[C@H](CCCNC(=N)N)NC(C)=O)C(C)C)C(C)C)C(=O)N[C@@H](Cc1ccccc1)C(=O)N[C@@H](Cc1c[nH]c2ccccc12)C(=O)N[C@@H](CCCNC(=N)N)C(=O)N[C@@H](CC(C)C)C(=O)N[C@@H](CC(N)=O)C(=O)NCC(=O)N[C@@H](C)C(=O)N[C@@H](CCCCNC(=S)Nc1ccc2c(c1)C(=O)OC21c2ccc(O)cc2Oc2cc(O)ccc21)C(=O)O [F-scrambled, reference compound] (Ac-RKLFVKVMFWRLNGAK(FITC)-OH; C-terminus assumed)	–	–	–	–	–	–	–	–	affinity weaker compared to the native peptide ([2]; F-scrambled vs F-αIIb, 1.6 vs 0.2 μM): ~8 fold
O=C(O)C1=CC(=C(c2ccc(O)c(C(=O)O)c2)c2ccc(O)c(C(=O)O)c2)C=CC1=O [NCGC00015040-05]	-33	-1.2	15	45	YES	3.2	> 120	4.6	384-well COUNTERSCREEN Confirm? ([2]; F-scrambled peptide, *: Curve in opposite direction): YES
OCCN(CCO)c1nc(N2CCCCC2)c2nc(N(CCO)CCO)nc(N3CCCCC3)c2n1 [NCGC00015385-15]	-172	-1.1	200	175	YES	12.7	22.2	22.2	–
NS(=O)(=O)c1cccc2c1c([N+](=O)[O-])cc1nc(O)c([O-])nc12.[Na+] [NCGC00024961-03]	-46	-1.2	70	70	YES	5	7.4	9.1	–
CN1CCCN=C1/C=C/c1cccs1 [NCGC00094552-04]	–	–	–	–	–	24.1	4.6	> 120	IC50 ([1]; confirmatory screen, read-out: CONFIRMATORY SCREEN IC50): 50.1 µM
Cc1nc(/N=N\c2cc(S(=O)(=O)O)c3cc([N+](=O)[O-])cc(S(=O)(=O)O)c3c2)c(COP(=O)(O)O)c(C=O)c1O [NCGC00162294-03]	–	–	–	–	–	7.9	3.3	1.7	–
Nc1c(S(=O)(=O)[O-])cc(Nc2ccc(Nc3nc(Cl)nc(Nc4ccc(S(=O)(=O)O)cc4)n3)c(S(=O)(=O)O)c2)c2c1C(=O)c1ccccc1C2=O.[Na+] [NCGC00162329-02]	-64	-1.2	60	60	YES	1.4	1.3	1	–
CN(C)[C@@H]1CCN(c2cccc(Nc3nn4c(=O)c5ccccc5nc4s3)c2)C1.Cl [NCGC00189223-01]	–	–	34	48	YES	–	14.1	15.8	–
O=C(N/N=C1\C(=O)N(CCc2ccccc2)c2ccccc21)c1cccnc1 [NCGC00420788-01]	-28	–	–	–	–	22.4	–	–	Curve Class (counterscreen) ([4]; qHTS curve class, a negative sign marks inhibitory curves): -2.2; Efficacy (%) (counterscreen) ([4]; negative = inhibition): -65%; IC50 ([4]; read-out: IC50 [μM] (counterscreen)): 44.7 µM; Confirm? (confirmatory screen) ([1]; Table S3, confirmatory screen, YES/NO call): YES; Curve Class (confirmatory screen) ([1]; Table S3, confirmatory screen, qHTS curve class, a negative sign marks inhibitory curves): -2.2; Efficacy (%) (confirmatory screen) ([1]; Table S3, confirmatory screen, negative = inhibition): -58%; IC50 ([1]; Table S3, confirmatory screen, read-out: IC50 [μM] (confirmatory screen)): 39.8 µM; Curve Class ([1]; qHTS primary screen hits, Table S2, several classes where COUNT > 1): -1.4

Source: PMC11249646, “Small-Molecule Disruptors of the Interaction between Calcium- and Integrin-Binding Protein 1 and Integrin αIIbβ3 as Novel Antiplatelet Agents” (ACS Pharmacology & Translational Science, 2024)
